# From patent US20110306762A1, “ACID ADDITION SALT OF UDENAFIL, PREPARATION METHOD THEREOF AND PHARMACEUTICAL COMPOSITION COMPRISING THE SAME” (priority 2009, published 2011)
# Assays:
# [1] = Crystallinity test of acid addition salts of Udenafil; assay type: physicochemical; set-up: key: ◯: Formation of crystal; X: No formation of crystal; conditions: for Crystallinity test 1-2: crystallization: whether crystallization occurs after dissolving the salt in a suitable solvent; for Crystallinity test 1-1: detecting whether the crystal is formed in the reaction solution
# Description: The acid addition salts of Udenafil obtained in Examples 1 to 6 and Comparative Examples were tested for crystallinity and hygroscopicity as follows.
# 1) detecting whether the crystal is formed in the reaction solution, and
# 2) crystallization: detecting whether crystallization occurs after dissolving acid addition salt of Udenafil in a suitable solvent.
# [2] = Solubility test in distilled water by HPLC; assay type: physicochemical
# Description: To test the solubility of the acid addition salts of Udenafil in distilled water, the following experiments were preformed.
# The analysis conditions for HPLC were as follows:
# Detector: ultraviolet ray absorbance measured at wavelength 292 nm
# Column: octadecyl silica gel C18 (4.6×150 mm, 5 μm)
# Mobile phase: an aqueous solution of potassium dihydrogenphosphate (0.02M):acetonitrile=70:30
# [3] = Hygroscopicity test of acid addition salts of Udenafil; assay type: physicochemical; conditions: exposed for 2 hours, room temperature, relative humidity 43%
# PDE-5 = PDE-5 (Homo sapiens, UniProt O76074); conditions: compared with the conventional compounds; cited from earlier work
# [4] = in vivo; cited from earlier work
compound,measurement,setting,value
"CC1(C)C2CCC1(CS(=O)(=O)O)C(=O)C2.CCCOc1ccc(S(=O)(=O)NCCC2CCCN2C)cc1-c1nc2c(CCC)nn(C)c2c(=O)[nH]1 (centres unmarked) [Example 3, Camphorsulfonic Acid Addition Salt of Udenafil]",Crystallinity test 1-2,[1],◯
same,Crystallinity test 1-1,[1],◯
same,solubility in the distilled water,[2],remarkably excellent solubility
same,Average of measured peak area,"[2]; HPLC, UV 292 nm","7,142,473"
same,First measured peak area,"[2]; HPLC, UV 292 nm","7,141,140"
same,second measured peak area,"[2]; HPLC, UV 292 nm","7,127,027"
same,third measured peak area,"[2]; HPLC, UV 292 nm","7,158,961"
same,"Hygroscopicity (weight change ratio, %)",[3],0.7%
"CCCOc1ccc(S(=O)(=O)NCCC2CCCN2C)cc1-c1nc2c(CCC)nn(C)c2c(=O)[nH]1 (centres unmarked) [Udenafil, 5-[2-propyloxy-5-(1-methyl-2-pyrrolidinyleneamidosulfonyl)phenyl]-1-methyl-propyl-1,6-dihydro-7H-pyrazolo(4,3-d)pyrimidine-7-one]",selectivity to PDE-5,PDE-5,notably higher selectivity
same,solubility in the distilled water,[2],hardly dissolved
same,detection in the distilled water,[2]; HPLC,not detected
same,half-life,[4],12 h
same,time to maximum peak plasma concentration,[4],1 h
N[C@@H](CC(=O)O)C(=O)O [aspartic acid],Crystallinity test 1-2,[1],X
same,Crystallinity test 1-1,[1],X
O=C(O)CC(O)(CC(=O)O)C(=O)O [citric acid],Crystallinity test 1-2,[1],X
same,Crystallinity test 1-1,[1],X
O=CO [formic acid],Crystallinity test 1-2,[1],X
same,Crystallinity test 1-1,[1],X
O=C(O)/C=C/C(=O)O [fumaric acid],Crystallinity test 1-2,[1],X
same,Crystallinity test 1-1,[1],X
N[C@@H](CCC(=O)O)C(=O)O [glutamic acid],Crystallinity test 1-2,[1],X
same,Crystallinity test 1-1,[1],X
O=C(O)CCCC(=O)O [glutaric acid],Crystallinity test 1-2,[1],X
same,Crystallinity test 1-1,[1],X
O=C(O)CNC(=O)c1ccccc1 [hippuric acid],Crystallinity test 1-2,[1],X
same,Crystallinity test 1-1,[1],X
CC(O)C(=O)O (centres unmarked) [lactic acid],Crystallinity test 1-2,[1],X
same,Crystallinity test 1-1,[1],X
O=C(O)/C=C\C(=O)O [maleci acid],Crystallinity test 1-2,[1],X
same,Crystallinity test 1-1,[1],X
O=C(O)/C=C\C(=O)O [maleic acid],Crystallinity test 1-2,[1],X
same,Crystallinity test 1-1,[1],X
O=C(O)CC(=O)O [malonic acid],Crystallinity test 1-2,[1],X
same,Crystallinity test 1-1,[1],X
O=C(O)CCC(=O)O [succinic acid],Crystallinity test 1-2,[1],X
same,Crystallinity test 1-1,[1],X
O=C(O)C(O)C(O)C(=O)O (centres unmarked) [tartaric acid],Crystallinity test 1-2,[1],X
same,Crystallinity test 1-1,[1],X
Adipic Acid Addition Salt of Udenafil [Example 5],Crystallinity test 1-2,[1],◯
same,Crystallinity test 1-1,[1],◯
Benzenesulfonic Acid Addition Salt of Udenafil [Example 2],Crystallinity test 1-2,[1],◯
same,Crystallinity test 1-1,[1],◯
Cinnamic Acid Addition Salt of Udenafil [Example 4],Crystallinity test 1-2,[1],◯
same,Crystallinity test 1-1,[1],◯
Oxalic Acid Addition Salt of Udenafil [Example 1],Crystallinity test 1-2,[1],◯
same,Crystallinity test 1-1,[1],◯
